Structures can show the parent of a compound that is named as a salt. Where two headings read alike, the source gives them in different places. Numbered stars: 1 amine (or outer) side, 2 acyl side, 3 side chain; on linkers, the order of the positions; unused ones are H or OH. Bridge positions count the residues as written; N and C are the ends. Square brackets hold non-standard residues; d marks the D form. Peptide text beside a SMILES is read from it. * marks the point of attachment. pTerphenylCO(4''-OnC5H11) = CCCCCOc1ccc(-c2ccc(-c3ccc(C(=O)*)cc3)cc2)cc1; Orn(4R-OH,5R-OH) = O=C([C@H](C[C@@H](O)[C@@H](O)N[*:3])N[*:1])[*:2]; hTyr(3S-OH,4S-OH) = N[C@H](C(=O)O)[C@H](O)[C@@H](O)c1ccc(O)cc1; Pro(3S-OH,4S-Me) = C[C@H]1CN[C@H](C(=O)O)[C@H]1O; Hyp = O=C(O)[C@@H]1C[C@@H](O)CN1
Biological target: binding of recombinant, trimeric SARS-CoV-2 spike protein to recombinant human ACE2 (Severe acute respiratory syndrome coronavirus 2, UniProt P0DTC2, K986P/R682G/R683S/R685S/V987P)
Assay: biochemical
Design: species or system SARS-CoV-2 / human

SMILES | % Inhibition | also measured
CCN(CC)Cc1cc(Nc2ccnc3cc(Cl)ccc23)ccc1O [Amodiaquine hydrochloride] | 90% | –
CCCCCOc1ccc(-c2ccc(-c3ccc(C(=O)N[C@H]4C[C@@H](O)[C@@H](O)NC(=O)[C@@H]5[C@@H](O)[C@@H](C)CN5C(=O)[C@H]([C@@H](C)O)NC(=O)[C@H]([C@H](O)[C@@H](O)c5ccc(O)cc5)NC(=O)[C@@H]5C[C@@H](O)CN5C(=O)[C@H]([C@@H](C)O)NC4=O)cc3)cc2)cc1 [Anidulafungin] ({pTerphenylCO(4''-OnC5H11)}-[Orn(4R-OH,5R-OH)]T[Hyp][hTyr(3S-OH,4S-OH)]T[Pro(3S-OH,4S-Me)]; lactam 1-C) | 99% | –
CCOc1cc([C@@H](CS(C)(=O)=O)N2C(=O)c3cccc(NC(C)=O)c3C2=O)ccc1OC [Apremilast (CC-10004), Apremilast] | 96% | –
C[C@@H](O[C@H]1OCCN(Cc2n[nH]c(=O)[nH]2)[C@H]1c1ccc(F)cc1)c1cc(C(F)(F)F)cc(C(F)(F)F)c1 [Aprepitant] | 94% | –
CCOC(=O)c1c(CSc2ccccc2)n(C)c2cc(Br)c(O)c(CN(C)C)c12.Cl [Arbidol HCl] | 95% | –
COc1ccc(CN=c2[nH]c(N3CCC[C@H]3CO)ncc2C(=O)NCc2ncccn2)cc1Cl [Avanafil] | 99% | –
CC[C@@]1(O)C(=O)OCc2c1cc1n(c2=O)Cc2c-1nc1ccccc1c2CCNC(C)C [Belotecan] | – | inhibition of spike-ACE2 binding in the screen: did not inhibit
O=C(O)CCCC[C@@H]1SC[C@@H]2NC(=O)N[C@@H]21 [Biotin (Vitamin B7), Biotin] | 91% | –
CO[C@H]1C(=O)[C@]2(C)[C@@H](OC)C[C@H]3OC[C@@]3(OC(C)=O)[C@H]2[C@H](OC(=O)c2ccccc2)[C@]2(O)C[C@H](OC(=O)[C@H](O)[C@@H](NC(=O)OC(C)(C)C)c3ccccc3)C(C)=C1C2(C)C [Cabazitaxel] | 86% | –
CO/N=C(\C(=O)N[C@@H]1C(=O)N2C(C(=O)OCOC(=O)C(C)(C)C)=C(/C=C\c3scnc3C)CS[C@H]12)c1csc(N)n1 [Cefditoren Pivoxil] | 96% | –
CON=C(C(=O)NC1C(=O)N2C(C(=O)OCOC(=O)C(C)(C)C)=C(C)CSC12)c1csc(N)n1 (centres unmarked) [Cefetamet Pivoxil Hydrochloride] | 94% | –
Cc1ccc(-c2cc(C(F)(F)F)nn2-c2ccc(S(N)(=O)=O)cc2)cc1 [Celecoxib] | 93% | IC50: 61.5 µM
COc1ccc2cc1Oc1ccc(cc1)C[C@H]1c3c(cc4c(c3Oc3cc5c(cc3OC)CCN(C)[C@@H]5C2)OCO4)CCN1C [Cepharanthine] | 94% | –
O=C(O)c1cn(C2CC2)c2cc(N3CCNCC3)c(F)cc2c1=O [Ciprofloxacin Hydrochloride Hydrate] | 93% | –
C[C@@H](Oc1cc(-c2cnn(C3CCNCC3)c2)cnc1N)c1c(Cl)ccc(F)c1Cl [Crizotinib (PF-02341066), Crizotinib] | – | % Inhibition, Screen: 55%
CN(C)c1ccc(C(=C2C=CC(=[N+](C)C)C=C2)c2ccc(N(C)C)cc2)cc1 [Crystal Violet] | 98% | –
COC(=O)N[C@H](C(=O)N1CCC[C@H]1c1nc(-c2ccc(-c3ccc(-c4c[nH]c([C@@H]5CCCN5C(=O)[C@@H](NC(=O)OC)C(C)C)n4)cc3)cc2)c[nH]1)C(C)C [Daclatasvir Dihydrochloride] | 97% | –
COC(=O)N[C@H](C(=O)N1CCC[C@H]1c1nc(-c2ccc(-c3ccc(-c4c[nH]c([C@@H]5CCCN5C(=O)[C@@H](NC(=O)OC)C(C)C)n4)cc3)cc2)c[nH]1)C(C)C [Daclatasvir] | 99% | –
Cc1nc(Nc2ncc(C(=O)Nc3c(C)cccc3Cl)s2)cc(N2CCN(CCO)CC2)n1.Cl [Dasatinib HCl] | 98% | EC50 (read-out: EC50 (corrected)): 65.9 µM
CN1C[C@H](C(=O)N[C@]2(C)O[C@@]3(O)[C@@H]4CCCN4C(=O)[C@H](Cc4ccccc4)N3C2=O)C[C@@H]2c3cccc4[nH]cc(c34)C[C@H]21 [Dihydroergotamine Mesylate] | 94% | –
CC(=O)O[C@@]12CO[C@@H]1C[C@H](O)[C@@]1(C)C(=O)[C@H](O)C3=C(C)[C@@H](OC(=O)[C@H](O)[C@@H](NC(=O)OC(C)(C)C)c4ccccc4)C[C@@](O)([C@@H](OC(=O)c4ccccc4)[C@H]21)C3(C)C [Docetaxel Trihydrate] | 95% | –
CC(=O)O[C@@]12CO[C@@H]1C[C@H](O)[C@@]1(C)C(=O)[C@H](O)C3=C(C)[C@@H](OC(=O)[C@H](O)[C@@H](NC(=O)OC(C)(C)C)c4ccccc4)C[C@@](O)([C@@H](OC(=O)c4ccccc4)[C@H]21)C3(C)C [Docetaxel] | – | % Inhibition, Screen: 98%
CO[C@H]1C[C@H](O[C@H]2[C@H](C)O[C@@H](O[C@@H]3/C(C)=C/C[C@@H]4C[C@@H](C[C@]5(C=C[C@H](C)[C@@H](C6CCCCC6)O5)O4)OC(=O)[C@@H]4C=C(C)[C@@H](O)[C@H]5OC/C(=C\C=C\[C@@H]3C)[C@]54O)C[C@@H]2OC)O[C@@H](C)[C@@H]1O [Doramectin] | 96% | EC50 (read-out: EC 50): 12.8 µM; IC50 (read-out: IC50 Mean): 12.8 µM

SMILES | % Inhibition | also measured
CN1CCc2nc(C(=O)N[C@@H]3C[C@@H](C(=O)N(C)C)CC[C@@H]3NC(=O)C(=O)Nc3ccc(Cl)cn3)sc2C1 [Edoxaban] | 95% | –
COC(=O)N[C@H](C(=O)N1CCC[C@H]1c1nc(-c2ccc3c(c2)O[C@@H](c2ccccc2)n2c-3cc3cc(-c4c[nH]c([C@@H]5CCCN5C(=O)[C@@H](NC(=O)OC)C(C)C)n4)ccc32)c[nH]1)C(C)C [Elbasvir] | 100% | –
CN1CCN(c2ccc(C(=O)Nc3n[nH]c4ccc(Cc5cc(F)cc(F)c5)cc34)c(NC3CCOCC3)c2)CC1 [Entrectinib] | 90% | IC50: 58.4 µM
C[C@]12CC[C@@H]3c4ccc(OC(=O)c5ccccc5)cc4CC[C@H]3[C@@H]1CC[C@@H]2O [Estradiol benzoate] | 93% | –
CO[C@H]1C[C@@H]2CC[C@@H](C)[C@@](O)(O2)C(=O)C(=O)N2CCCC[C@H]2C(=O)O[C@H]([C@H](C)C[C@@H]2CC[C@@H](OCCO)[C@H](OC)C2)CC(=O)[C@H](C)/C=C(\C)[C@@H](O)[C@@H](OC)C(=O)[C@H](C)C[C@H](C)/C=C/C=C/C=C/1C [Everolimus (RAD001), Everolimus] | 94% | –
N#Cc1nn(-c2c(Cl)cc(C(F)(F)F)cc2Cl)c(N)c1[S+]([O-])C(F)(F)F (centres unmarked) [Fipronil] | 91% | –
CC[C@@]1(O)C(=O)OCc2c1cc1n(c2=O)Cc2cc3cc(O)ccc3nc2-1 [Hydroxycamptothecin] | 99% | –
Cc1ccc(NC(=O)c2ccc(CN3CCN(C)CC3)cc2)cc1Nc1nccc(-c2cccnc2)n1 [Imatinib] | – | inhibition of spike-ACE2 binding in the screen: failed to inhibit
CCc1c2c(nc3ccc(OC(=O)N4CCC(N5CCCCC5)CC4)cc13)-c1cc3c(c(=O)n1C2)COC(=O)[C@]3(O)CC [Irinotecan] | – | inhibition of spike-ACE2 binding in the screen: did not inhibit
COc1cc(-c2coc3cc4c(c(OC)c3c2=O)OCO4)cc(OC)c1OC [Irisflorentin] | 97% | –
COc1cc2nccc(Oc3ccc(NC(=O)NC4CC4)c(Cl)c3)c2cc1C(N)=O [Lenvatinib Mesylate] | 94% | –
O=C(NC1CCN(CCCCC2(C(=O)NCC(F)(F)F)c3ccccc3-c3ccccc32)CC1)c1ccccc1-c1ccc(C(F)(F)F)cc1 [Lomitapide Mesylate] | 93% | –
OC(c1cc(C(F)(F)F)nc2c(C(F)(F)F)cccc12)C1CCCCN1 (centres unmarked) [Mefloquine] | – | % inhibition in first-round screen: 77%
CN(C)c1ccc2nc3ccc(=[N+](C)C)cc-3sc2c1 [Methylene Blue] | – | % inhibition in first-round screen: 44%
C[C@@H]1C[C@H]2[C@@H]3CCC4=CC(=O)C=C[C@]4(C)[C@@]3(Cl)[C@@H](O)C[C@]2(C)[C@@]1(OC(=O)c1ccco1)C(=O)CCl [Mometasone furoate] | 98% | –
Cc1c(O)cccc1C(=O)N[C@@H](CSc1ccccc1)[C@H](O)CN1C[C@H]2CCCC[C@H]2C[C@H]1C(=O)NC(C)(C)C [Nelfinavir Mesylate] | 94% | –
Cc1cn(-c2cc(NC(=O)c3ccc(C)c(Nc4nccc(-c5cccnc5)n4)c3)cc(C(F)(F)F)c2)cn1 [Nilotinib AMN-107, Nilotinib] | 99% | –
Cc1cn(-c2cc(NC(=O)c3ccc(C)c(Nc4nccc(-c5cccnc5)n4)c3)cc(C(F)(F)F)c2)cn1.Cl [Nilotinib HCl, Nilotinib Hydrochloride] | 99% | –
CCCCCCCCN=c1ccn(CCCCCCCCCCn2ccc(=NCCCCCCCC)cc2)cc1 [Octenidine Dihydrochloride] | 100% | –
C=CC(=O)Nc1cccc(Oc2nc(Nc3ccc(N4CCN(C)CC4)cc3)nc3ccsc23)c1 [Olmutinib] | 98% | –
COC(=O)N[C@H](C(=O)N1CCC[C@H]1C(=O)Nc1ccc([C@@H]2CC[C@@H](c3ccc(NC(=O)[C@@H]4CCCN4C(=O)[C@@H](NC(=O)OC)C(C)C)cc3)N2c2ccc(C(C)(C)C)cc2)cc1)C(C)C [Ombitasvir (ABT-267), Ombitasvir] | 92% | –
COc1cc([C@@H]2c3cc4c(cc3[C@H](O)[C@H]3COC(=O)[C@@H]23)OCO4)cc(OC)c1OC [Picropodophyllin] | 98% | –
